What was measured:
Type in all cases: cell-based
Details in all cases: reduction of AT-mediated invasion, losartan 2 uM
[1] = system: DU145 prostate cancer cells; assay: Matrigel cell invasion assay, DU145
578T breast cancer cells = assay: Matrigel cell invasion assay, 578T
[2] = system: H16N2 immortalized benign breast epithelial cell line; assay: Matrigel cell invasion assay, H16N2
[3] = system: MCF-7 breast cancer cells; assay: Matrigel cell invasion assay, MCF7
[4] = system: BT549 breast cancer cells; assay: Matrigel cell invasion assay, BT549

CCCCc1nc(Cl)c(CO)n1Cc1ccc(-c2ccccc2-c2nn[nH]n2)cc1 [Lo, Losartan]
Lo (2 uM) % Red. [1]: 35.0% | Lo (2 uM) % Red. (578T breast cancer cells): 67.9% | Lo (2 uM) % Red. (578T breast cancer cells; listed as losartan): 68% | Lo (2 uM) % Red. [2]: 16.7% | Lo (2 uM) % Red. [3]: 56.7% | Lo (2 uM) % Red. [4]: 72.4% | Lo (2 uM) % Red. ([4]; listed as losartan): 72%
